Assay [1] addresses NT-3 growth factor receptor (Homo sapiens) (UniProt Q16288). Put plainly: Inhibition of TRKC (unknown origin).
In assay [2] the target is Dual specificity protein kinase CLK4 (Homo sapiens) (UniProt Q9HAZ1). The experiment in a line: Inhibition of CLK4 (unknown origin).
Assay [3] addresses High affinity nerve growth factor receptor (Homo sapiens) (UniProt P04629). The experiment in a line: Inhibition of TRKA (unknown origin).
Assay [4] has as its target Mitogen-activated protein kinase kinase kinase kinase 4 (Homo sapiens) (UniProt O95819). The experiment in a line: Inhibition of MAP4K4 (unknown origin).
In assay [5] the target is T1, Interleukin-1 receptor-associated kinase 4 (Homo sapiens, UniProt Q9NWZ3).
T1 sequence (Q9NWZ3 whole entry): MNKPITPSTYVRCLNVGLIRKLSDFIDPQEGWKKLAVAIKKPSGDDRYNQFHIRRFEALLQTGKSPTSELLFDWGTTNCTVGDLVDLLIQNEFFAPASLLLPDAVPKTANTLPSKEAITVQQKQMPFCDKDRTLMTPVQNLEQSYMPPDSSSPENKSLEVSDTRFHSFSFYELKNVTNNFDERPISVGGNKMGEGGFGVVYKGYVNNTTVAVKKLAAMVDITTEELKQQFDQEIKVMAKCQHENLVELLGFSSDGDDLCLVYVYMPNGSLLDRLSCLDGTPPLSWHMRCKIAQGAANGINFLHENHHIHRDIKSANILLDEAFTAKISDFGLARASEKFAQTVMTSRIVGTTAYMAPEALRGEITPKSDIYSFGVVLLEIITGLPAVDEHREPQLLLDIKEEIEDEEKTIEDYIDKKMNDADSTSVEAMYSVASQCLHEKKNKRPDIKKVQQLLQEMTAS
Put plainly: Inhibition of N-terminal GST tagged human recombinant full-length IRAK4 expressed in Sf9 insect cells assessed as reduction in substrate phosphorylation using RP7030 peptide substrate and ATP incubated for 30 mins fluorescence polarization assay.

Assay [6] addresses Receptor-type tyrosine-protein kinase FLT3 (Homo sapiens) (UniProt P36888). The experiment in a line: Inhibition of FLT3 (unknown origin).
The target in assay [7] is BDNF/NT-3 growth factors receptor (Homo sapiens) (UniProt Q16620). Put plainly: Inhibition of TRKB (unknown origin).
Chain of BDNF/NT-3 growth factors receptor (Homo sapiens) (Q16620 32-822 limits assumed): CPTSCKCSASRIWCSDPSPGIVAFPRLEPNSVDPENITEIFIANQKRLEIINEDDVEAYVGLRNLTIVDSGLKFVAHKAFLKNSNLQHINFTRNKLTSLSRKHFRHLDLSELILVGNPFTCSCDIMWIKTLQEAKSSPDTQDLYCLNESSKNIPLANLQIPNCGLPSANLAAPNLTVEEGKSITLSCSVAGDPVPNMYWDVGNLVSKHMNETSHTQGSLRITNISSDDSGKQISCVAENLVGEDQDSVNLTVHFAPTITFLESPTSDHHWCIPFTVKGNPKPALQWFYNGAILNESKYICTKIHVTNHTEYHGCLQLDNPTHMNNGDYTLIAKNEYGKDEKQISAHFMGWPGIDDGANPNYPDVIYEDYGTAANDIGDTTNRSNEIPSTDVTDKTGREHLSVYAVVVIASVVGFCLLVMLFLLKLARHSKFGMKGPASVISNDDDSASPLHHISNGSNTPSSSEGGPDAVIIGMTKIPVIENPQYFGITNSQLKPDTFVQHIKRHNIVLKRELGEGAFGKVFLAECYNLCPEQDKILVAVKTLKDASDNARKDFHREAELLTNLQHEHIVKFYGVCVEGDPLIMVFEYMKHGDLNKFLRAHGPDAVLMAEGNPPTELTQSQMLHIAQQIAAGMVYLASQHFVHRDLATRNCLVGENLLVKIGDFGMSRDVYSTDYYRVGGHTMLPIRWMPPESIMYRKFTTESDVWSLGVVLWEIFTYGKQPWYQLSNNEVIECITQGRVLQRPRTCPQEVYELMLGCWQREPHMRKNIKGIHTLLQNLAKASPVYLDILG

Calls of active or inactive are those of the source. No cut-off for these calls is given here.

Chain of Dual specificity protein kinase CLK4 (Homo sapiens) (Q9HAZ1 whole entry, looked up): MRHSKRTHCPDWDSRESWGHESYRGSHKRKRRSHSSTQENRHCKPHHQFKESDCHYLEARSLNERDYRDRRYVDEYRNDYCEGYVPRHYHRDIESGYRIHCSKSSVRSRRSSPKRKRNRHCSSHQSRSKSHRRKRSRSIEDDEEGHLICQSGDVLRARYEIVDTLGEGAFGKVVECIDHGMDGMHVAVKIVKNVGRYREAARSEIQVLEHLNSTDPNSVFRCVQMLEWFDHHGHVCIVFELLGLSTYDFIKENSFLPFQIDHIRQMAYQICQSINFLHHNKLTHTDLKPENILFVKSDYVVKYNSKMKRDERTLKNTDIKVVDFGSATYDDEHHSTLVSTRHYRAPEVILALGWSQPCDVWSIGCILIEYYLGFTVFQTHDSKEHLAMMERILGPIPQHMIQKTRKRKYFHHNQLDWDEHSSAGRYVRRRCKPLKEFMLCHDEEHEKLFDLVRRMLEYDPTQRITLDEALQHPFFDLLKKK
Chain of Receptor-type tyrosine-protein kinase FLT3 (Homo sapiens) (P36888 whole entry): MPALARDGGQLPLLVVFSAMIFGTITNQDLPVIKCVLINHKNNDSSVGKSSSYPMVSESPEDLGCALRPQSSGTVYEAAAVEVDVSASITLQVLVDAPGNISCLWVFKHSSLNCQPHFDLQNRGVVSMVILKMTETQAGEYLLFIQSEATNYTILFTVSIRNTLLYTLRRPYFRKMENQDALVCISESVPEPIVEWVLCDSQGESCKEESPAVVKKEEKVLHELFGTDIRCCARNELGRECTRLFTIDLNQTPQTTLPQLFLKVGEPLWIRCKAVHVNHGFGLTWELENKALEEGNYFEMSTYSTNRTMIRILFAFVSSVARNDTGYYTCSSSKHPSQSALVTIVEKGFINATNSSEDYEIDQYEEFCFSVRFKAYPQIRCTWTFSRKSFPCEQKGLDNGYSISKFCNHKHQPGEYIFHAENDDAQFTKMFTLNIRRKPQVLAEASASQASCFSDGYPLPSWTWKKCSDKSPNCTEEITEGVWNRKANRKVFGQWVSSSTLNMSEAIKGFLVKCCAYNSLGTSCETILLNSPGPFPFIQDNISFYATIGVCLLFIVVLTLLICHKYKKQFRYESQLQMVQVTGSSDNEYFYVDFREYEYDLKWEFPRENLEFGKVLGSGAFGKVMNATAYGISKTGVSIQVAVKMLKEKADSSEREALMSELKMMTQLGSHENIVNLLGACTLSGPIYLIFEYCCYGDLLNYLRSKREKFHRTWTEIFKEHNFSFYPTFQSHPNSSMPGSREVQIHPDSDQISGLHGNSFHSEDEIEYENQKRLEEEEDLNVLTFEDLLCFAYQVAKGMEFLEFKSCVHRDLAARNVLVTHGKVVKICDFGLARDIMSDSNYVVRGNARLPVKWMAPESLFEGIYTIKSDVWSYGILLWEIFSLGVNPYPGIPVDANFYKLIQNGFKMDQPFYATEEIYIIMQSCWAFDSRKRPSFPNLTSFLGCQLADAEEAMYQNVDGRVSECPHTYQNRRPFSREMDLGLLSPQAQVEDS
Chain of NT-3 growth factor receptor (Homo sapiens) (Q16288 32-839 limits assumed): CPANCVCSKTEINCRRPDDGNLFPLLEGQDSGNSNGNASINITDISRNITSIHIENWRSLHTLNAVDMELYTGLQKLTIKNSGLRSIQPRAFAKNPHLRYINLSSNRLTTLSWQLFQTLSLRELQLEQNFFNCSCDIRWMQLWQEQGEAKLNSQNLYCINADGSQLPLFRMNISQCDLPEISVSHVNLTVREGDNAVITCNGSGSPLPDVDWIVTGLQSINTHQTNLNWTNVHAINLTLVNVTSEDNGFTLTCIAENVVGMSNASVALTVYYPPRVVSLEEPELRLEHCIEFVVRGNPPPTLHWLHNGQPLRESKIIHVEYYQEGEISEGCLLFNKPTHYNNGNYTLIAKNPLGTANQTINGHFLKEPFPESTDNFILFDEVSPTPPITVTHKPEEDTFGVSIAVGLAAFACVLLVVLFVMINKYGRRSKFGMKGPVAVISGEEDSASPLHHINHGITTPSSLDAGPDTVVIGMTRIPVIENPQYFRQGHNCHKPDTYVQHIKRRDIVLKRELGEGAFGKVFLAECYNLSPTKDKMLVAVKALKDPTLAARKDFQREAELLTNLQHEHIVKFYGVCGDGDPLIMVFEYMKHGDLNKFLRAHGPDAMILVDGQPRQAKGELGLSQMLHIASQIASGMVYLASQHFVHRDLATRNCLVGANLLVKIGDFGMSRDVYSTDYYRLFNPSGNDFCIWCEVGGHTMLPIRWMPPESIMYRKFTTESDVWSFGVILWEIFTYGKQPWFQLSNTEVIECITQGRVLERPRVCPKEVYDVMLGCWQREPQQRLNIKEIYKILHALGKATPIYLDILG
Chain of Mitogen-activated protein kinase kinase kinase kinase 4 (Homo sapiens) (O95819 2-1239 limits assumed): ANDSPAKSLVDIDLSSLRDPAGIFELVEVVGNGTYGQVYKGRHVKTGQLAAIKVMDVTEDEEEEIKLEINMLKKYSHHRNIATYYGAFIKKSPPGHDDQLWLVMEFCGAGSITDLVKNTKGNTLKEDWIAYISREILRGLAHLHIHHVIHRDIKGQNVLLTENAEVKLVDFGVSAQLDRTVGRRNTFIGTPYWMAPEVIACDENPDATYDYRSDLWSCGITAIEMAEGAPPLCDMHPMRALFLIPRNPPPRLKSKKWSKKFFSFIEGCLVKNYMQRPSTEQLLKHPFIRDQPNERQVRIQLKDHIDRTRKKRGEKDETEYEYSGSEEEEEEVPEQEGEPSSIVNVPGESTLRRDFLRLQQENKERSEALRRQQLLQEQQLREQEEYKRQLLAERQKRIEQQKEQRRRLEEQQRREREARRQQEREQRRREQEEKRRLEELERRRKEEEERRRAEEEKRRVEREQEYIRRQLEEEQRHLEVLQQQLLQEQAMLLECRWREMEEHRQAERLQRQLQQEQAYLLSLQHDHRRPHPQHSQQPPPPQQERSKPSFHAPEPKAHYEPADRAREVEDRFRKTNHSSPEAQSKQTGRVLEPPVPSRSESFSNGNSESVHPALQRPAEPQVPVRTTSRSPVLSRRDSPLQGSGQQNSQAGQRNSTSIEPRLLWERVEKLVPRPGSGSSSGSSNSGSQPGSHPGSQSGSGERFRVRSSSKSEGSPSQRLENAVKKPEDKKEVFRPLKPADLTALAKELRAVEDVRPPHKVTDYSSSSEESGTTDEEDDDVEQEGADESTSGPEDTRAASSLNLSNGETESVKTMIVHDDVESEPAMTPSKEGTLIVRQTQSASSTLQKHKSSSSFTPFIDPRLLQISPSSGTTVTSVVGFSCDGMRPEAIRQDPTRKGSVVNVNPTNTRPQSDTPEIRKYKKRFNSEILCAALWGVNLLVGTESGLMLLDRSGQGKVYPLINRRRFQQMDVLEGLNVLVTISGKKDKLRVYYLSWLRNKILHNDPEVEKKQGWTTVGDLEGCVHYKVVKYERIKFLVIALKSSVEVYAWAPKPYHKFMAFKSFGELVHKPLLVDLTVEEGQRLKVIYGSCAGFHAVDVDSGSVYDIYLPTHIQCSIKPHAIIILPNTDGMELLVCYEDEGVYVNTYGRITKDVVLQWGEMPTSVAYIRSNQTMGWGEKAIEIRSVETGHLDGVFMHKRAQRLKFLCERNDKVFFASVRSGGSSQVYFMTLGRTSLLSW
Chain of High affinity nerve growth factor receptor (Homo sapiens) (P04629 33-796 limits assumed): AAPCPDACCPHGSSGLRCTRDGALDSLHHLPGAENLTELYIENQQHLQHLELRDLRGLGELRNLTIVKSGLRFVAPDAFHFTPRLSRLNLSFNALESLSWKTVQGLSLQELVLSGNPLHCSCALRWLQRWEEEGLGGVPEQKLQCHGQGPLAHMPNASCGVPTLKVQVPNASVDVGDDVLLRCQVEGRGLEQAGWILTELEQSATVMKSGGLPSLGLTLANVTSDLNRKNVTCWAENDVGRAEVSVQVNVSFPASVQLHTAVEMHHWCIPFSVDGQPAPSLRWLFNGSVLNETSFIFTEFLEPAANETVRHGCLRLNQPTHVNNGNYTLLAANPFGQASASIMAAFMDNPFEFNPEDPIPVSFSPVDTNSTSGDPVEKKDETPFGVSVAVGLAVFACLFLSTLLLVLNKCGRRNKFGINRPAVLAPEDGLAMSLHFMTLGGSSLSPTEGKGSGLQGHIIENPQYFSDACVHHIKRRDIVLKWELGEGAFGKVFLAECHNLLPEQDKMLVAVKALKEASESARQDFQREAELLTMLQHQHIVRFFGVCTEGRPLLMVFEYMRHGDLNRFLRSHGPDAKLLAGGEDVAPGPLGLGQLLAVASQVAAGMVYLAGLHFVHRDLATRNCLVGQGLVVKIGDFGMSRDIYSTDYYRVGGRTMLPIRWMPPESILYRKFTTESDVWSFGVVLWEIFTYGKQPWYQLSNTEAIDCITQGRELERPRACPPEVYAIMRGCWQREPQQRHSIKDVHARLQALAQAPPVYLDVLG

In the case of `N#Cc1nc(N)nc(N[C@@H]2C[C@H](CO)[C@@H](O)[C@H]2O)c1-c1nc2ccccc2s1`, the inhibition entry in assay [1], in assay [2], in assay [3], in assay [4], in assay [6] and in assay [7] was “Active” throughout. Also, the IC50 in assay [5] is more than 20000 nM.

Turning to `CCCNc1nc(C)c(-c2nc3ccccc3s2)c(N[C@H]2CC[C@@H](CO)C2)n1` (racemic), the inhibition entry in assay [1], in assay [2], in assay [3], in assay [4], in assay [6] and in assay [7] was “Active” in each case. In addition, the 50% inhibitory concentration (IC50) in assay [5] is more than 20000 nM.

With `COc1nc(N)nc(N[C@@H]2C[C@H](CO)[C@@H](O)[C@H]2O)c1-c1nc2ccccc2s1`, the inhibition entry in assay [1], in assay [2], in assay [3], in assay [4], in assay [6] and in assay [7] was “Active” in each case. For the same compound, the IC50 in assay [5] is more than 20000 nM.

Consider `COCCCNc1ncc(-c2nc3ccccc3s2)c(N[C@@H]2C[C@H](CO)[C@@H](O)[C@H]2O)n1`, for which the inhibition entry in assay [1], in assay [2], in assay [3], in assay [4], in assay [6] and in assay [7] was “Active” in each case. Further, the IC50 in assay [5] worked out at 228 nM.

With `Cc1cc(Nc2ncc(-c3nc4ccncc4s3)c(N[C@@H]3C[C@H](CO)[C@@H](O)[C@H]3O)n2)cc(C)n1`, the inhibition result in assay [1], in assay [2], in assay [3], in assay [4], in assay [6] and in assay [7] was “Active” each time. Also, in assay [5], the IC50 turned out to be 300 nM.

These data come from ChEMBL document CHEMBL3400143, “Discovery and hit-to-lead optimization of 2,6-diaminopyrimidine inhibitors of interleukin-1 receptor-associated kinase 4” (Bioorg Med Chem Lett, 2015).
